Patent publication EP4424307A1, “PROTECTIVE AGENT FOR USE IN PERITONEAL DIALYSIS” (Zytoprotec GmbH, priority 2023, dated 2024)
Peptide text beside a SMILES is read from it.

How the values were obtained:
[1] = system: steatohepatitis and fibrosis; conditions: murine NAFLD model; cited from earlier work
systemic inflammation = conditions: addition to PDF in PD patients; tendency for hs-CRP and IL-6, statistical significance with IL-8; cited from earlier work
[2] = system: hepatic reperfusion-injury; conditions: rat model; cited from earlier work
[3] = system: clinical markers of liver injury; assay: Secondary analysis of phase II crossover trial of Alanyl-Glutamine supplementation to PDF, liver tests; format: in vivo, human; conditions: patients on chronic PD, n=41, crossover
From the text: To further investigate the effect of Alanyl-Glutamine supplementation to PDF in human PD-induced hepatic (dys)function, the inventors conducted a secondary analysis of a prospective, multicenter, double-blinded, controlled, randomized, dual-period, 2-treatment, crossover, phase II, proof-of-concept study including eight Austrian centers for Alanyl-Glutamine supplementation to the PDF in patients on chronic PD.
This study cohort and its baseline characteristics have already been previously described by Vychytil et al (8).

[4] = system: PD induced hepatic inflammatory response; assay: Murine chronic PD exposure model, liver histology (NAS, Oil Red O, Sirius Red); format: in vivo; conditions: uremic mice with PD, PDF supplemented with Alanyl-Glutamine 8 mM
From the text: (§1) The inventors conducted a murine PD exposure experiment resembling chronic PD in healthy and uremic mice: The experiment consisted of n=34 animals in six distinct groups.
(§2) The animals were split in the following groups: • 1) Healthy control animals ("control") • 2) Healthy animals receiving PD treatment (via an indwelling catheter) ("PD") • 3) Healthy animals receiving PD treatment (via an indwelling catheter) supplemented with Alanyl-Glutamine ("PD+AG") • 4) Uremic animals ("uremic") • 5) Uremic animals receiving PD treatment (via an indwelling catheter) ("uremic PD") • 6) Uremic animals receiving PD treatment (via an indwelling catheter) supplemented with Alanyl-Glutamine ("uremic PD+AG")
(§3) All animals of the uremic groups (Groups 4, 5, and 6) were subjected to left-sided 2/3 nephrectomy at day 0 of the study, and to complete right-sided nephrectomy at day 7 of the study, thereby inducing chronic kidney disease.
(§4) All animals receiving PD treatment (Groups 2, 3, 5, and 6) had their indwelling catheter implanted at day 7 of the study.
Animals in groups 2,3, 5, and 6 received daily PDF (Dianeal PD4 3.86% [Baxter, Deerfield, IL, USA]) injections via their indwelling catheter starting from day 14 over the course of six weeks, thereby inducing chronic PDF exposure.
For animals of groups 3 and 6 the daily PDF injections were supplemented with Alanyl-Glutamine (8 mM) over the course of six weeks.
At sacrifice (day 56 of the study), animal livers were subjected to histologic analysis.
NAFLD activity score (NAS) assessment was conducted as previously described (47) on hematoxylin & eosin (H&E) stained hepatic tissue on one facial field image per mouse.
Steatosis hepatis was assessed by semi-quantitative measurement of Oil Red O stained hepatic tissue with one facial field image per mouse.
Fibrosis hepatis was assessed by semi-quantitative measurement of Sirius Red stained hepatic tissue with one facial field image per mouse.

[5] = system: LPS-induced acute liver injury; conditions: mice; cited from earlier work
[6] = system: acute-phase-response- and inflammation-associated proteins within the liver; assay: Murine chronic PD exposure model, mass spectrometry proteomics analysis of liver; format: in vivo, mice; conditions: liver of uremic animals receiving PD; of 57 proteins dysregulated by PD; p<0.05
From the text: as §1, §2, §3, §4
Animals in groups 2,3, 5, and 6 received daily PDF (Dianeal PD4 3.86% [Baxter, Deerfield, IL, USA]) injections via their indwelling catheter starting from day 14 over the course of six weeks, thereby inducing chronic PDF exposure. […]

[7] = log10 transformed due to skewness
[8] = H&E liver sections, daily over six weeks, vs uremic PD

SMILES: C[C@H](N)C(=O)N[C@@H](CCC(N)=O)C(=O)O [Alanyl-Glutamine, L-alanyl-L-glutamine] (H-Ala-Gln-OH)
- steatohepatitis and fibrosis [1]: significantly attenuate steatohepatitis and fibrosis
- systemic inflammation (hs-CRP, IL-6, IL-8) (systemic inflammation): attenuate systemic inflammation
- hepatic reperfusion-injury [2]: reduce hepatic reperfusion-injury
- GGT, Least squares mean (95% CI) [3, 7]: 1.41 (1.37 to 1.46) U/L
- GOT/AST, Least squares mean (95% CI) [3, 7]: 1.23 (1.19 to 1.27) U/L
- GPT/ALT, Least squares mean (95% CI) [3, 7]: 1.20 (1.15 to 1.25) U/L
- LDH, Least squares mean (95% CI) [3, 7]: 2.30 (2.27 to 2.32) U/L
- LDH, Difference Alanyl-Glutamine-placebo, estimate ± SE ([3]; log10 transformed, p value 0.0206): -0.03 ± 0.01 U/L
- GPT/ALT, Difference Alanyl-Glutamine-placebo, estimate ± SE ([3]; log10 transformed, p value 0.0466): -0.06 ± 0.03 U/L
- GOT/AST, Difference Alanyl-Glutamine-placebo, estimate ± SE ([3]; log10 transformed, p value 0.1877): -0.04 ± 0.03 U/L
- GGT, Difference Alanyl-Glutamine-placebo, estimate ± SE ([3]; log10 transformed, p value 0.4901): -0.02 ± 0.02 U/L
- areas of hepatocyte ballooning [4, 8]: decreased
- numbers of inflammatory immune cell infiltrates [4, 8]: markedly decreased
- PD induced fibrosis (% area of Sirius Red stained tissue) ([4]; liver sections): trends of improvement
- PD induced steatosis (% area of Oil Red O stained tissue) ([4]; liver sections): trends of improvement
- NAFLD activity score (NAS) ([4]; daily over six weeks, vs uremic PD, Mann Whitney U test): significantly (p<0.05) decreased
- LPS-induced acute liver injury [5]: protect mice against LPS-induced acute liver injury
- number of acute-phase-response- and inflammation-associated proteins with significantly altered abundance [6]: 11
